Measured values published in PMC6979384, “Characterization of the plant homeodomain (PHD) reader family for their histone tail interactions” (Epigenetics & Chromatin, 2020).
Where no end group is shown, it is not given here. [ ]: non-standard residue; d: D form. Lys(Me2) = CN(C)CCCC[C@H](N)C(=O)O

Assays:
Experiment in all cases: Histone peptide microarray
Format in all cases: binding, human
KDM5A (3) = conditions: for Array Heatmap signal, KDM5A (3): histone peptide array, GST-tagged reader, arrays performed twice, n of 4
In short: (§1)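 Mean ± SD of 4 replicate array intensities; GST-PHD finger at 0.5 μM against 293 PTM-bearing histone peptides.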

PHF23 = conditions: for Array Heatmap signal, PHF23: histone peptide array, GST-tagged reader, arrays performed twice, n of 4
In short: as §1

CHD4 (PPCC) = conditions: for Array Heatmap signal, CHD4 (PPCC): histone peptide array, GST-tagged reader, PPCC = Dual PHD + Dual Chromodomain, arrays performed twice, n of 4
In short: as §1

BAZ2B = conditions: for Array Heatmap signal, BAZ2B: histone peptide array, GST-tagged reader, arrays performed twice, n of 4
In short: as §1

PHF2 = conditions: for Array Heatmap signal, PHF2: histone peptide array, GST-tagged reader, arrays performed twice, n of 4
In short: as §1

KDM5B (1) = conditions: for Array Heatmap signal, KDM5B (1): histone peptide array, GST-tagged reader, arrays performed twice, n of 4
In short: as §1

ING5 = conditions: for Array Heatmap signal, ING5: histone peptide array, GST-tagged reader, arrays performed twice, n of 4
In short: as §1

RAG2 = conditions: for Array Heatmap signal, RAG2: histone peptide array, GST-tagged reader, arrays performed twice, n of 4
In short: as §1

MLL5 = conditions: for Array Heatmap signal, MLL5: histone peptide array, GST-tagged reader, arrays performed twice, n of 4
In short: as §1

ING3 = conditions: for Array Heatmap signal, ING3: histone peptide array, GST-tagged reader, arrays performed twice, n of 4
In short: as §1

ING2 = conditions: for Array Heatmap signal, ING2: histone peptide array, GST-tagged reader, arrays performed twice, n of 4
In short: as §1

ING1 = conditions: for Array Heatmap signal, ING1: histone peptide array, GST-tagged reader, arrays performed twice, n of 4
In short: as §1

PHF21A = conditions: for Array Heatmap signal, PHF21A: histone peptide array, GST-tagged reader, arrays performed twice, n of 4
In short: as §1

BPTF (PB) = conditions: for Array Heatmap signal, BPTF (PB): histone peptide array, GST-tagged reader, PB = PHD + Bromodomain, arrays performed twice, n of 4
In short: as §1

KDM5A (1) = conditions: for Array Heatmap signal, KDM5A (1): histone peptide array, GST-tagged reader, arrays performed twice, n of 4
In short: as §1

KDM5B (3) = conditions: for Array Heatmap signal, KDM5B (3): histone peptide array, GST-tagged reader, arrays performed twice, n of 4
In short: as §1

TRIM66 (PB) = conditions: for Array Heatmap signal, TRIM66 (PB): histone peptide array, GST-tagged reader, PB = PHD + Bromodomain, arrays performed twice, n of 4
In short: as §1

KDM7A = conditions: for Array Heatmap signal, KDM7A: histone peptide array, GST-tagged reader, arrays performed twice, n of 4
In short: as §1

DPF2 (PPC2W2) = conditions: for Array Heatmap signal, DPF2 (PPC2W2): histone peptide array, GST-tagged reader, PPC2W2 = Dual PHD + C2W2-type Zn-finger, arrays performed twice, n of 4
In short: as §1

KDM4C (TTP) = conditions: for Array Heatmap signal, KDM4C (TTP): histone peptide array, GST-tagged reader, TTP = Tandem Tudor domain + PHD, arrays performed twice, n of 4
In short: as §1

AIRE (PP) = conditions: for Array Heatmap signal, AIRE (PP): histone peptide array, GST-tagged reader, arrays performed twice, n of 4
In short: as §1

CHD5 (PPCC) = conditions: for Array Heatmap signal, CHD5 (PPCC): histone peptide array, GST-tagged reader, PPCC = Dual PHD + Dual Chromodomain, arrays performed twice, n of 4
In short: as §1

DIDO1 = conditions: for Array Heatmap signal, DIDO1: histone peptide array, GST-tagged reader, arrays performed twice, n of 4
In short: as §1

PHF13 = conditions: for Array Heatmap signal, PHF13: histone peptide array, GST-tagged reader, arrays performed twice, n of 4
In short: as §1

ING4 = conditions: for Array Heatmap signal, ING4: histone peptide array, GST-tagged reader, arrays performed twice, n of 4
In short: as §1

SP140L = conditions: for Array Heatmap signal, SP140L: histone peptide array, GST-tagged reader, arrays performed twice, n of 4
In short: as §1

CHD5 (PCC) = conditions: for Array Heatmap signal, CHD5 (PCC): histone peptide array, GST-tagged reader, PCC = PHD + Dual Chromodomain, arrays performed twice, n of 4
In short: as §1

PHF8 = conditions: for Array Heatmap signal, PHF8: histone peptide array, GST-tagged reader, arrays performed twice, n of 4
In short: as §1

PHRF1 (RP) = conditions: for Array Heatmap signal, PHRF1 (RP): histone peptide array, GST-tagged reader, arrays performed twice, n of 4
In short: as §1

TAF3 = conditions: for Array Heatmap signal, TAF3: histone peptide array, GST-tagged reader, arrays performed twice, n of 4
In short: as §1

MORC3 (CW) = conditions: for Array Heatmap signal, MORC3 (CW): histone peptide array, GST-tagged reader, CW = CW-type Zn-finger, arrays performed twice, n of 4
In short: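 Steps: express and purify GST-tagged PHD reader; incubate 0.5 μM protein on a peptide microarray (293 histone peptides, single or combined PTMs) following an optimized protocol; average signal across 4 replicates.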

## H3.3K27vl (15-34): H3.3 15-34
KDM5A (3); KDM5A (3), sheet "Array Heatmap", each array performed twice, total n = 4
  Array Heatmap value (peptide array signal): 0.423
PHF23; PHF23, sheet "Array Heatmap", each array performed twice, total n = 4
  Array Heatmap value (peptide array signal): 0.5229
CHD4 (PPCC); CHD4 (PPCC), sheet "Array Heatmap", each array performed twice, total n = 4
  Array Heatmap value (peptide array signal): 0.5729
BAZ2B; BAZ2B, sheet "Array Heatmap", each array performed twice, total n = 4
  Array Heatmap value (peptide array signal): 0.4362
PHF2; PHF2, sheet "Array Heatmap", each array performed twice, total n = 4
  Array Heatmap value (peptide array signal): 0.5263
KDM5B (1); KDM5B (1), sheet "Array Heatmap", each array performed twice, total n = 4
  Array Heatmap value (peptide array signal): 0.5524
ING5; ING5, sheet "Array Heatmap", each array performed twice, total n = 4
  Array Heatmap value (peptide array signal): 0.3413
RAG2; RAG2, sheet "Array Heatmap", each array performed twice, total n = 4
  Array Heatmap value (peptide array signal): 0.2413
MLL5; MLL5, sheet "Array Heatmap", each array performed twice, total n = 4
  Array Heatmap value (peptide array signal): 0.5405
ING3; ING3, sheet "Array Heatmap", each array performed twice, total n = 4
  Array Heatmap value (peptide array signal): 0.4849
ING2; ING2, sheet "Array Heatmap", each array performed twice, total n = 4
  Array Heatmap value (peptide array signal): 0.6055
ING1; ING1, sheet "Array Heatmap", each array performed twice, total n = 4
  Array Heatmap value (peptide array signal): 0.5627
PHF21A; PHF21A, sheet "Array Heatmap", each array performed twice, total n = 4
  Array Heatmap value (peptide array signal): 0.4671
BPTF (PB); BPTF (PB), sheet "Array Heatmap", each array performed twice, total n = 4
  Array Heatmap value (peptide array signal): 0.3408
KDM5A (1); KDM5A (1), sheet "Array Heatmap", each array performed twice, total n = 4
  Array Heatmap value (peptide array signal): 0.4391
KDM5B (3); KDM5B (3), sheet "Array Heatmap", each array performed twice, total n = 4
  Array Heatmap value (peptide array signal): 0.4603
TRIM66 (PB); TRIM66 (PB), sheet "Array Heatmap", each array performed twice, total n = 4
  Array Heatmap value (peptide array signal): 0.5686
KDM7A; KDM7A, sheet "Array Heatmap", each array performed twice, total n = 4
  Array Heatmap value (peptide array signal): 0.3156
DPF2 (PPC2W2); DPF2 (PPC2W2), sheet "Array Heatmap", each array performed twice, total n = 4
  Array Heatmap value (peptide array signal): 0.6907
KDM4C (TTP); KDM4C (TTP), sheet "Array Heatmap", each array performed twice, total n = 4
  Array Heatmap value (peptide array signal): 0.4488
AIRE (PP); AIRE (PP), sheet "Array Heatmap", each array performed twice, total n = 4
  Array Heatmap value (peptide array signal): 0.3881
CHD5 (PPCC); CHD5 (PPCC), sheet "Array Heatmap", each array performed twice, total n = 4
  Array Heatmap value (peptide array signal): 0.5207
DIDO1; DIDO1, sheet "Array Heatmap", each array performed twice, total n = 4
  Array Heatmap value (peptide array signal): 0.7045
PHF13; PHF13, sheet "Array Heatmap", each array performed twice, total n = 4
  Array Heatmap value (peptide array signal): 0.5845
ING4; ING4, sheet "Array Heatmap", each array performed twice, total n = 4
  Array Heatmap value (peptide array signal): 0.4471
SP140L; SP140L, sheet "Array Heatmap", each array performed twice, total n = 4
  Array Heatmap value (peptide array signal): 0.3739
CHD5 (PCC); CHD5 (PCC), sheet "Array Heatmap", each array performed twice, total n = 4
  Array Heatmap value (peptide array signal): 0.7909
PHF8; PHF8, sheet "Array Heatmap", each array performed twice, total n = 4
  Array Heatmap value (peptide array signal): 0.3696
PHRF1 (RP); PHRF1 (RP), sheet "Array Heatmap", each array performed twice, total n = 4
  Array Heatmap value (peptide array signal): 0.4435
TAF3; TAF3, sheet "Array Heatmap", each array performed twice, total n = 4
  Array Heatmap value (peptide array signal): 0.2402
MORC3 (CW); MORC3 (CW), sheet "Array Heatmap", each array performed twice, total n = 4
  Array Heatmap value (peptide array signal): 0.3607

## H3.3K36ac (27-45): H3.3 27-45 (KSAPSTGGVK(Ac)KPHRYRPGT; UniProt P84243 28-46, looked up, fragment)
KDM5A (3)
  Array Heatmap signal, KDM5A (3): 0.4209
PHF23
  Array Heatmap signal, PHF23: 0.4952
CHD4 (PPCC)
  Array Heatmap signal, CHD4 (PPCC): 0.5592
BAZ2B
  Array Heatmap signal, BAZ2B: 0.4933
PHF2
  Array Heatmap signal, PHF2: 0.4404
KDM5B (1)
  Array Heatmap signal, KDM5B (1): 0.6658
ING5
  Array Heatmap signal, ING5: 0.3709
RAG2
  Array Heatmap signal, RAG2: 0.2614
MLL5
  Array Heatmap signal, MLL5: 0.5589
ING3
  Array Heatmap signal, ING3: 0.4435
ING2
  Array Heatmap signal, ING2: 0.5814
ING1
  Array Heatmap signal, ING1: 0.4834
PHF21A
  Array Heatmap signal, PHF21A: 0.4713
BPTF (PB)
  Array Heatmap signal, BPTF (PB): 0.3342
KDM5A (1)
  Array Heatmap signal, KDM5A (1): 0.4872
KDM5B (3)
  Array Heatmap signal, KDM5B (3): 0.5076
TRIM66 (PB)
  Array Heatmap signal, TRIM66 (PB): 0.5797
KDM7A
  Array Heatmap signal, KDM7A: 0.4861
DPF2 (PPC2W2)
  Array Heatmap signal, DPF2 (PPC2W2): 0.6599
KDM4C (TTP)
  Array Heatmap signal, KDM4C (TTP): 0.5383
AIRE (PP)
  Array Heatmap signal, AIRE (PP): 0.5459
CHD5 (PPCC)
  Array Heatmap signal, CHD5 (PPCC): 0.5516
DIDO1
  Array Heatmap signal, DIDO1: 0.652
PHF13
  Array Heatmap signal, PHF13: 0.6099
ING4
  Array Heatmap signal, ING4: 0.4648
SP140L
  Array Heatmap signal, SP140L: 0.378
CHD5 (PCC)
  Array Heatmap signal, CHD5 (PCC): 0.818
PHF8
  Array Heatmap signal, PHF8: 0.3248
PHRF1 (RP)
  Array Heatmap signal, PHRF1 (RP): 0.3938
TAF3
  Array Heatmap signal, TAF3: 0.2777
MORC3 (CW)
  Array Heatmap signal, MORC3 (CW): 0.2989

## H3.3K36me2 (27-45): H3.3 27-45 (KSAPSTGGV[Lys(Me2)]KPHRYRPGT; UniProt P84243 28-46, looked up, fragment)
KDM5A (3)
  Array Heatmap signal, KDM5A (3): 0.4963
PHF23
  Array Heatmap signal, PHF23: 0.5877
CHD4 (PPCC)
  Array Heatmap signal, CHD4 (PPCC): 0.5698
BAZ2B
  Array Heatmap signal, BAZ2B: 0.4965
PHF2
  Array Heatmap signal, PHF2: 0.5053
KDM5B (1)
  Array Heatmap signal, KDM5B (1): 0.6701
ING5
  Array Heatmap signal, ING5: 0.3908
RAG2
  Array Heatmap signal, RAG2: 0.3087
MLL5
  Array Heatmap signal, MLL5: 0.5651
ING3
  Array Heatmap signal, ING3: 0.5215
ING2
  Array Heatmap signal, ING2: 0.5971
ING1
  Array Heatmap signal, ING1: 0.5396
PHF21A
  Array Heatmap signal, PHF21A: 0.4763
BPTF (PB)
  Array Heatmap signal, BPTF (PB): 0.3735
KDM5A (1)
  Array Heatmap signal, KDM5A (1): 0.505
KDM5B (3)
  Array Heatmap signal, KDM5B (3): 0.5383
TRIM66 (PB)
  Array Heatmap signal, TRIM66 (PB): 0.6104
KDM7A
  Array Heatmap signal, KDM7A: 0.3737
DPF2 (PPC2W2)
  Array Heatmap signal, DPF2 (PPC2W2): 0.6778
KDM4C (TTP)
  Array Heatmap signal, KDM4C (TTP): 0.5418
AIRE (PP)
  Array Heatmap signal, AIRE (PP): 0.4867
CHD5 (PPCC)
  Array Heatmap signal, CHD5 (PPCC): 0.6024
DIDO1
  Array Heatmap signal, DIDO1: 0.7878
PHF13
  Array Heatmap signal, PHF13: 0.6587
ING4
  Array Heatmap signal, ING4: 0.4773
SP140L
  Array Heatmap signal, SP140L: 0.3879
CHD5 (PCC)
  Array Heatmap signal, CHD5 (PCC): 0.8212
PHF8
  Array Heatmap signal, PHF8: 0.3824
PHRF1 (RP)
  Array Heatmap signal, PHRF1 (RP): 0.4622
TAF3
  Array Heatmap signal, TAF3: 0.2867
MORC3 (CW)
  Array Heatmap signal, MORC3 (CW): 0.4027
